# Laboratory results reported in US6150363A, “Dihydrophenazinecarboxylic acid derivatives” (priority 1996, dated 2000).
# Where a name gives a salt, the structure may show the parent alone.
# Tests used:
# [1] = tested on: free radical; settings: cited from earlier work; for antioxidant property: J. Antibiotics, 48, 1378 (1995) and PCT WO96/22996; for free radical scavenger (anti-oxidant): J. Nat. Prod., 56, 1255(1993)
# [2] = tested on: glutamic acid toxicity; settings: J. Antibiotics, 48, 1378 (1995) and PCT WO96/22996; cited from earlier work
# [3] = Stability at room temperature under atmospheric conditions; format: physicochemical
# [4] = tested on: N18-RE-105 cell; assay: Test for inhibition of BSO toxicity to neurocyte (LDH release); format: cell-based, hybridoma of mouse neuroblastoma and rat retinal neurocyte; settings: for EC50: BSO 500 μM, 24 hours; for cytoprotective action to BSO toxicity in neurocyte: result in words
# Experimental: (2) Test for inhibition of BSO toxicity to neurocyte (neurocyte protective action against cytotoxicity accompanied by decrease of amount of intracellular glutathione)
# The culture of neurocyte N18-RE-105, addition of the test compound, and determination of lactate dehydrogenase (LDH) were carried out in the manner as described in (1) above. BSO was added at the concentration of 500 μM.
# [5] = tested on: N18-RE-105 cell; assay: Test for inhibition of glutamic acid toxicity to neurocyte (LDH release); format: cell-based, hybridoma of mouse neuroblastoma and rat retinal neurocyte; settings: for EC50: 10 mM glutamic acid, 24 hours; for cytoprotective action to glutamic acid toxicity in neurocyte: result in words
# Experimental: Neuron 2, 1547 (1989) and J. Pharmacol. Exp. […] The dihydrophenazinecarboxylic acid derivatives of the invention were examined in the action to the glutamic acid-induced cell death. […] Hybridoma cells were plated at 6.25×10^3 cells/cm^2. on 96 well microplate in Dalbecco's modified MEM containing 10% FBS (fetal bovine serum) and HAT (hypoxanthine 0.1 mM, aminopterin 40 nM, thymidine 0.14 mM, Sigma Chem., Co.). […] After the addition of glutamic acid, the culture was maintained for further 24 hours. Then, the activity of lactate dehydrogenase (LDH) contained in the cells and the medium was determined. The LDH releasing ratio was calculated using the below-mentioned equation to examine the glutamic acid toxicity. LDH releasing ratio=[LDH activity in medium/(LDH activity in cells and LDH activity in medium)]×100
# [6] = tested on: hippocampal cells; assay: Test for inhibition of glutamic acid toxicity to hippocampal cells in primary culture (LDH); format: cell-based; settings: hippocampal cell, rat fetus, 1 mM glutamic acid, 48 hours
# Text: 1) Preparation of hippocampal cells (from rat fetus in primary culture) A pregnant rat (18 days pregnancy) was anesthetized by Pentobarbital sodium. Its abdomen was sterilized using 83% ethanol and treated to take its fetus out. The whole brain was taken out from the fetus under stereomicroscopical observation. From the brain, its hippocampal portion was taken out. The hippocampal portion was cut into small pieces using a knife. The procedures for taking the hippocampal portion out and cutting the portion into small pieces were performed in a Hanks buffer solution (4° C.) without Ca^2+ and Mg^2+. The pieces of hippocampus were treated with 0.25% trypsin/0.01% DNase I solution at 37° C. for 30 minutes. After the addition of dialyzed FBS at the concentration of 20%, the treated specimen was recovered by centrifugal separation and suspended in DMEM containing GMS-A obtained from GIBCO (S1 culture medium). The specimen was gently treated by a pipet to give a cell suspension. […] 2) Determination of activity (Lactate dehydrogenase (LDH) method) The cytoprotective action of the test compound was determined by measuring activity of LDH released from the dead cells and activity of LDH in the living cells. […] After the culturing procedure was complete, the activity of lactate dehydrogenase was determined in the manner described in 1) above.
# [7] = tested on: rat whole brain homogenate; assay: Test for inhibition of production of peroxidized lipid in rat whole brain homogenate (TBA method); format: biochemical; settings: 10^-4 M, iron-ascorbic acid, 37° C., one hour
# Text: (4) Test for inhibition of production of peroxidized lipid in rat whole brain homogenate
# From the rat which had been fed with vitamin E deficient food for 11 weeks, a whole brain was taken out and frozen in liquid nitrogen. After the frozen whole brain was pulverized to give a powder, it was homogenized by Dounce type homogenizer. The homogenate was subjected to centrifugal separation at 180×g for 10 minuets, and the supernatant was recovered. The recovered supernatant was employed as the whole brain homogenate. The reaction of lipid peroxidation was initiated by stimulation using iron-ascorbic acid. The peroxidized lipid was quantitatively analyzed by the thiobarbituric acid (TBA) method. In more detail, 200 μL of the whole brain homogenate (protein content: 12.5 mg/mL), 50 μL of ADP (2 mg/mL), 50 μL of FeSO4 (0.5 mM), 50 μL of ascorbic acid (12 mM), and 50 μL of the test compound were added to 100 μL of 0.2M Tris-HCl buffer solution. The mixture was incubated at 37° C. for one hour. After the incubation was complete, 50 μL of 0.5% butylhydroxytoluene/ethanol solution, 250 μL of 8.1% SDS (sodium dodecylsulfate) solution, 1,750 μL of 20% acetic acid, and 1,500 μL of 0.8% TBA solution were added to the incubated mixture. The resulting mixture was boiled for one hour. […] The separated supernatant was subjected to measurement of absorbance at 535 nm.
# [8] = tested on: ddY strain male mice; assay: Acute toxicity, intravenous, mice; format: in vivo; settings: 5 mg, intravenous injection
# Experimental: The compound of the invention (ethyl 7-benzoyl-5,10-dihydro-1-phenazinecarboxylate obtained in Example 1) was administered to ddY strain male mice (weight: 23 to 27 g) in a dose of 5 mg by intravenous injection.
compound,measurement,setting,value
CC(C)=CCc1cc(C(=O)c2ccccc2)cc2c1Nc1c(C(=O)OC3O[C@@H](C)[C@H](O)[C@@H](O)[C@H]3O)cccc1N2CC=C(C)C (stereo partly shown) [aestivophoenin B],antioxidant property,[1],shows antioxidant property
same,inhibition of glutamic acid toxicity,[2],inhibit glutamic acid toxicity
CC(C)=CCN1c2cc(C(=O)c3ccccc3)ccc2Nc2c(C(=O)OC3O[C@@H](C)[C@H](O)[C@@H](O)[C@H]3O)cccc21 (stereo partly shown) [aestivophoenin A],antioxidant property,[1],shows antioxidant property
same,inhibition of glutamic acid toxicity,[2],inhibit glutamic acid toxicity
COC(=O)c1cc(C(=O)c2ccccc2)cc2c1Nc1ccc(C(=O)c3ccccc3)cc1N2C/C=C(\C)CCC=C(C)C [its methyl ester],free radical scavenger (anti-oxidant),[1],employable as a free radical scavenger (anti-oxidant)
"CCOC(=O)c1cccc2c1Nc1ccccc1N2 [ethyl 5,10-dihydro-1-phenazinecarboxylate]",stability,[3],unstable at room temperature
"CCOC(=O)c1cccc2c1Nc1ccc(C(=O)c3ccccc3)cc1N2Cc1ccccc1 [Compound 3, Ethyl 7-benzoyl-5-benzyl-5,10-dihydro-1-phenazinecarboxylate]",EC50,[4],72 nM
same,EC50,[5],40.7 nM
"CCOC(=O)c1cccc2c1Nc1ccc(C(=O)c3ccccc3)cc1N2CC=C(C)C [Compound 2, Ethyl 7-benzoyl-5,10-dihydro-5-(3-methyl-2-butenyl)-1-phenazinecarboxylate]",EC50,[4],96.2 nM
same,EC25,[6],12 nM
same,Inhibition of lipid peroxidation (% per control value),[7],60.2%
same,EC50,[5],14.5 nM
"CCOC(=O)c1cccc2c1Nc1ccc(C(=O)c3ccccc3)cc1N2C(=O)OC [Comparative, Ethyl 7-benzoyl-5,10-dihydro-5-methoxycarbonyl-1-phenazinecarboxylate]",EC50,[4],> 1000 nM
same,cytoprotective action to BSO toxicity in neurocyte,[4],no cytoprotective action
same,EC50,[5],> 1000 nM
same,cytoprotective action to glutamic acid toxicity in neurocyte,[5],no cytoprotective action
"O=c1c2ccccc2[se]n1-c1ccccc1 [Ebselen, ebselen]",EC50,[4],7500 nM
same,cytoprotective action to BSO toxicity in neurocyte,[4],no cytoprotective action
same,EC50,[5],10100 nM
same,cytoprotective action to glutamic acid toxicity in neurocyte,[5],no cytoprotective action
"CCOC(=O)c1cccc2c1Nc1ccc(C(=O)c3ccccc3)cc1N2C [Compound 4, Ethyl 7-benzoyl-5,10-dihydro-5-methyl-1-phenazinecarboxylate]",EC50,[4],90 nM
same,EC50,[5],58 nM
"CCOC(=O)c1cccc2c1Nc1ccc(C(=O)c3ccccc3)cc1N2 [Compound 1, Ethyl 7-benzoyl-5,10-dihydro-1-phenazinecarboxylate]",EC50,[4],6 nM
same,EC50,[5],3.3 nM
same,death (acute toxicity),[8],No death was observed
"CC(CNC(=O)c1cccnc1)NC(=O)c1cccnc1 (stereo not shown) [Nicarven, nicaraven]",EC50,[4],> 100000 nM
same,cytoprotective action to BSO toxicity in neurocyte,[4],no cytoprotective action
same,EC50,[5],> 100000 nM
same,cytoprotective action to glutamic acid toxicity in neurocyte,[5],no cytoprotective action
CC(C)=CCC/C(C)=C/CN1c2cc(C(=O)c3ccccc3)ccc2Nc2c(C(=O)O)cc(C(=O)c3ccccc3)cc21 [benthophoenin],free radical scavenger (anti-oxidant),[1],employable as a free radical scavenger (anti-oxidant)
"CC(C)=CCN1c2cc(C(=O)c3ccccc3)ccc2Nc2c(C(=O)OCCCN(C)C)cccc21 [Compound 5, 3-(Dimethylamino)propyl 7-benzoyl-5,10-dihydro-5-(3-methyl-2-butenyl)-1-phenazinecarboxylate hydrochloride]",EC25,[6],57.5 nM
